Measured values from patent US20260060928A1, “TALC-FREE ACTIVE INGREDIENT COATING” (Hermes Pharma GmbH, priority 2022, published 2026).
Converted amounts (≈) assume the structure as drawn. Structures can show the parent of a compound that is named as a salt.

Experiment: Solubility of the active ingredient in water at room temperature
Assay type: physicochemical
Procedure: Further, unless specified otherwise, any measured provisions such as densities, solubulities, or the like, are understood to be measured at room temperature (i.e., 20±5° C. as defined by the European Pharmacopoeia or by the WHO guidance ‘Guidelines for the Storage of Essential Medicines and Other Health Commodities’ (2003)).

| Compound | solubility [µg/mL] | solubility in water at room temperature [µg/mL] |
| --- | --- | --- |
| COc1ccc2[nH]cc(CCNC(C)=O)c2c1 [melatonin] | 2000 (≈ 8.61 mM) | – |
| CNC[C@H](O)c1cccc(O)c1 [phenylephrine HCl] | ≥ 100000 | – |
| vitamin B12 [Vit. B12] | – | 12500 |
